In patent US7951595B2, “Methods for screening modulators of SLC17-type anion transport activity” (National University Corporation Okayama University, priority 2007, dated 2011):

What was measured:
SLC17A9 mRNA = test: Knockdown of SLC17A9 by RNAi, SLC17A9 mRNA by real-time PCR; format: cell-based; settings: 25 nM rat SLC17A9 siRNA, cultured 3 days, versus control siRNA, FIG. 19(A)
Description: (§1) Knockdown of SLC17A9 by RNAi was carried out as follows. A sequence for RNAi designed by Qiagen HP OnGuard siRNA Design was used. The nucleic acid sequence of the RNAi used was […] (SEQ ID NO: 15). This sequence and HiPerFect transfection reagent (Qiagen) were used for transfection of 25 nM AllStars negative control siRNA or 25 nM rat SLC17A9 siRNA, and the resultant was cultured for 3 days, to thereby perform knockdown of SLC17A9. […] The amounts of SCL17A9 mRNA in the knocked-down cells (RNAi) and control cells (control) were measured by real-time PCR, and as shown in FIG. 19(A), the amount of SLC17A9 mRNA was decreased by RNAi.

PC12 cells = test: KCl-dependent ATP release after SLC17A9 knockdown; format: cell-based, rat; settings: 25 nM siRNA, 3 days, KCl stimulus 30 minutes, FIG. 19(B)
Description: as §1

SLC17A9 RNAi: RNAi of sequence UAUUCGAGAGAAUGUCACG (SEQ ID NO: 15) for knockdown of SLC17A9 (listed as RNA, chemistry not given here)
amount of SLC17A9 mRNA (SLC17A9 mRNA): decreased | KCl-dependent ATP release (PC12 cells): suppressed
